Measurements taken from patent publication US9545395B2, “Method and composition for enhancement of male erectile function” (priority 2008, dated 2017).

Test system: male erectile function (penis)
Assay: Clinical observations and case reports (Patients A-G): erectile response of men after local or systemic application
Type: in vivo, man
Details: for persistence of improvements after the last injection: after last IGF1 injection
[1] = Patient C, severe erectile dysfunction, maximal doses, before treatment
[2] = Patient C, maximal oral doses with daily topical androgens
[3] = Patient D, maximal oral doses combined with intracavernosal injections, before local IGF1
[4] = Patient D, oral medication without intracavernosal injections, after local IGF1
[5] = Patient D, oral medications, baseline
[6] = Patient G, oral medication, baseline
[7] = Patient E, four weekly IGF1 injections plus 2.5% testosterone cream

Molecule: CCCCC[C@H](O)/C=C/[C@H]1[C@H](O)CC(=O)[C@@H]1CCCCCCC(=O)O [prostaglandin E1]
- erection firmness (Patient A (person one), 1.5 ug prostaglandin E1 intracavernosally alone): 70-75%
- erection firmness (Patient B, venous leakage, 6 ug prostaglandin E1 intracavernosally alone): 60%
- duration of erection (Patient B, 6 ug prostaglandin E1 intracavernosally alone): about 30 mins
- erectile response (Patient C, maximum doses of PGE1 40 ug/ml plus triple mix papavarine, atropine, phentolamine): unable to obtain a usable erection

Molecule: Growth Hormone: Growth Hormone injections daily (Human Growth Hormone)
- erectile function (Patient D, daily Growth Hormone injections, 1 year): did not report a significant improvement in their erectile function

Molecule: C[C@]12CC[C@H]3[C@@H](CCC4=CC(=O)CC[C@@]43C)[C@@H]1CC[C@@H]2O [Testosterone]
- erectile function after about a month (Patient B, 10 mg Testosterone + 6 mcg LR3 IGF1 + 6 mcg PGE1 IC, 2-3 times per week): able to have sexual intercourse without any medications
- erectile response (Patient B, 10 mg Testosterone added to IC mixture of 6 mcg LR3 IGF1 plus 6 mcg PGE1, 2-3 times per week): dramatically harder and firmer erections

Molecule: CN1CC(=O)N2[C@H](c3ccc4c(c3)OCO4)c3[nH]c4ccccc4c3C[C@@H]2C1=O [Cialis]
- erectile response [1]: not having any erections
- erectile response [2]: still could not function
- erectile response [3]: frequently going soft during intercourse
- erectile response [4]: getting usable erections
- erectile response [5]: not responding
- erectile response [6]: not able function sexually

Molecule: IGF1: IGF-1 (Somatomedin-C), full length protein of 70 amino acids in a single chain with three intramolecular disulfide bridges
- erectile response (Patient C, 10-20 ug IGF-1 or 6-10 ug LR3 IGF1 sub-cutaneously plus topical 1% testosterone gel, 3-4 times per week, one month): erections dramatically improved
- reduction of intracavernosal medication dose (Patient D, after penile and intracavernosal IGF1 (5-10 ug combined with intracavernosal injections)): over 50%
- erectile function (Patient D, some of the daily 50-100 ug IGF1 injections applied intermittently into the penis): immediately experienced improved erectile function
- erectile response (Patient D, systemic IGF1 50-100 ug/day subcutaneously in abdomen, with intracavernosal meds): not getting adequate erections
- persistence of improvements after the last injection (Patient E): persisted for several weeks
- duration of erection after an intracavernosal injection [7]: over 40 minutes
- hardness of erection after an intracavernosal injection [7]: over 80%
- erectile function (Patient E, four weekly subcutaneous IGF1 injections into penis shaft plus 2.5% testosterone cream twice daily): dramatically improved the patient's erectile function
- persistence of improvements after the last injection (Patient G): persist for several weeks
- erectile function (Patient G, twice weekly subcutaneous 25 ug IGF1 into penis shaft, after Dihydrotestosterone cream): immediately began experiencing firmer spontaneous erections
- time to functional erections without the need for PDE5's (men relying on PDE5's, higher locally applied penile doses): 1-2 weeks
- time after discontinuation until improvement noticeably started weakening (men who had used only a couple of doses, essentially gone after a month): 1-2 weeks
- erectile function (men, 50-100 μg once per week sub-cutaneously or subdermally in the penis): dramatic improvement in their erectile function

Molecule: CCCc1nc(C)c2c(=O)[nH]c(-c3cc(S(=O)(=O)N4CCN(CC)CC4)ccc3OCC)nn12 [Levitra]
- erectile response [1]: not having any erections
- erectile response [2]: still could not function
- erectile response [3]: frequently going soft during intercourse
- erectile response [4]: getting usable erections
- erectile response [5]: not responding
- erectile response [6]: not able function sexually

Molecule: CCCc1nn(C)c2c(=O)[nH]c(-c3cc(S(=O)(=O)N4CCN(C)CC4)ccc3OCC)nc12 [Viagra]
- erectile response [1]: not having any erections
- erectile response [2]: still could not function
- erectile response [3]: frequently going soft during intercourse
- erectile response [4]: getting usable erections
- erectile response [5]: not responding
- erectile response [6]: not able function sexually
